± gives the expanded uncertainty stated by the source.
Assay: excess molar enthalpy (molar enthalpy of mixing); xn = mol fraction of the nth substance listed
Conditions: Liquid

CO [methanol] + O
Conditions	excess molar enthalpy [kcal/mol]
323.15 K, 2000 kPa, x1 = 0.2	-0.153 ± 0.0055
323.15 K, 2000 kPa, x1 = 0.4	-0.168 ± 0.00598
323.15 K, 2000 kPa, x1 = 0.6	-0.142 ± 0.00502
323.15 K, 2000 kPa, x1 = 0.8	-0.0978 ± 0.00382
323.15 K, 5000 kPa, x1 = 0.1	-0.106 ± 0.00406
323.15 K, 5000 kPa, x1 = 0.2	-0.154 ± 0.0055
323.15 K, 5000 kPa, x1 = 0.3	-0.17 ± 0.00598
323.15 K, 5000 kPa, x1 = 0.4	-0.169 ± 0.00598
323.15 K, 5000 kPa, x1 = 0.5	-0.158 ± 0.00574
323.15 K, 5000 kPa, x1 = 0.6	-0.142 ± 0.00526
323.15 K, 5000 kPa, x1 = 0.7	-0.122 ± 0.00454
323.15 K, 5000 kPa, x1 = 0.8	-0.0987 ± 0.00382
323.15 K, 5000 kPa, x1 = 0.9	-0.055 ± 0.00239
323.15 K, 10000 kPa, x1 = 0.2	-0.155 ± 0.0055
323.15 K, 10000 kPa, x1 = 0.4	-0.172 ± 0.00598
323.15 K, 10000 kPa, x1 = 0.6	-0.143 ± 0.00526
323.15 K, 10000 kPa, x1 = 0.8	-0.0997 ± 0.00382
325.16 K, 5000 kPa, x1 = 0.1	-0.103 ± 0.00382
325.16 K, 5000 kPa, x1 = 0.2	-0.15 ± 0.00526
325.16 K, 5000 kPa, x1 = 0.3	-0.165 ± 0.00574
325.16 K, 5000 kPa, x1 = 0.4	-0.164 ± 0.00574
325.16 K, 5000 kPa, x1 = 0.5	-0.153 ± 0.0055
325.16 K, 5000 kPa, x1 = 0.6	-0.139 ± 0.00502
325.16 K, 5000 kPa, x1 = 0.7	-0.119 ± 0.00454
325.16 K, 5000 kPa, x1 = 0.8	-0.0958 ± 0.00359
325.16 K, 5000 kPa, x1 = 0.9	-0.0548 ± 0.00239
325.16 K, 10000 kPa, x1 = 0.2	-0.15 ± 0.0055
325.16 K, 10000 kPa, x1 = 0.4	-0.166 ± 0.00598
325.16 K, 10000 kPa, x1 = 0.6	-0.139 ± 0.00502
325.16 K, 10000 kPa, x1 = 0.8	-0.0964 ± 0.00382
325.17 K, 2000 kPa, x1 = 0.2	-0.149 ± 0.00526
325.17 K, 2000 kPa, x1 = 0.4	-0.164 ± 0.00574
325.17 K, 2000 kPa, x1 = 0.6	-0.138 ± 0.00502
325.17 K, 2000 kPa, x1 = 0.8	-0.0951 ± 0.00359
325.45 K, 5000 kPa, x1 = 0.9	-0.0537 ± 0.00239
327.47 K, 5000 kPa, x1 = 0.8	-0.0944 ± 0.00359
327.48 K, 5000 kPa, x1 = 0.9	-0.0536 ± 0.00239
327.62 K, 2000 kPa, x1 = 0.8	-0.0935 ± 0.00359
327.85 K, 10000 kPa, x1 = 0.8	-0.0948 ± 0.00359
328.61 K, 5000 kPa, x1 = 0.1	-0.0988 ± 0.00382
328.71 K, 5000 kPa, x1 = 0.7	-0.114 ± 0.0043
329.03 K, 2000 kPa, x1 = 0.8	-0.0907 ± 0.00359
329.7 K, 10000 kPa, x1 = 0.6	-0.132 ± 0.00478
329.76 K, 5000 kPa, x1 = 0.6	-0.131 ± 0.00478
329.82 K, 2000 kPa, x1 = 0.6	-0.131 ± 0.00478
329.82 K, 10000 kPa, x1 = 0.8	-0.0921 ± 0.00359
330.07 K, 5000 kPa, x1 = 0.8	-0.0915 ± 0.00359
330.39 K, 5000 kPa, x1 = 0.1	-0.0956 ± 0.00359
330.5 K, 5000 kPa, x1 = 0.5	-0.144 ± 0.00526
330.64 K, 2000 kPa, x1 = 0.2	-0.139 ± 0.00502
330.67 K, 10000 kPa, x1 = 0.2	-0.14 ± 0.00502
330.69 K, 5000 kPa, x1 = 0.2	-0.14 ± 0.00502
330.7 K, 5000 kPa, x1 = 0.7	-0.112 ± 0.0043
331.07 K, 2000 kPa, x1 = 0.4	-0.151 ± 0.0055
331.07 K, 5000 kPa, x1 = 0.4	-0.153 ± 0.0055
331.13 K, 10000 kPa, x1 = 0.4	-0.153 ± 0.0055
331.23 K, 5000 kPa, x1 = 0.3	-0.152 ± 0.0055
331.57 K, 10000 kPa, x1 = 0.6	-0.128 ± 0.00478
331.61 K, 5000 kPa, x1 = 0.6	-0.128 ± 0.00478
331.66 K, 2000 kPa, x1 = 0.6	-0.127 ± 0.00478
332.3 K, 5000 kPa, x1 = 0.5	-0.14 ± 0.00502
332.4 K, 10000 kPa, x1 = 0.2	-0.135 ± 0.00502
332.42 K, 2000 kPa, x1 = 0.2	-0.133 ± 0.00478
332.5 K, 5000 kPa, x1 = 0.2	-0.136 ± 0.00502
332.88 K, 2000 kPa, x1 = 0.4	-0.148 ± 0.00526
332.9 K, 5000 kPa, x1 = 0.4	-0.148 ± 0.00526
332.91 K, 10000 kPa, x1 = 0.4	-0.149 ± 0.00526
333.05 K, 5000 kPa, x1 = 0.3	-0.148 ± 0.00526
348.15 K, 5000 kPa, x1 = 0.1	-0.0704 ± 0.00287
348.15 K, 5000 kPa, x1 = 0.2	-0.102 ± 0.00382
348.15 K, 5000 kPa, x1 = 0.3	-0.112 ± 0.0043
348.15 K, 5000 kPa, x1 = 0.4	-0.111 ± 0.0043
348.15 K, 5000 kPa, x1 = 0.5	-0.107 ± 0.00406
348.15 K, 5000 kPa, x1 = 0.6	-0.0974 ± 0.00382
348.15 K, 5000 kPa, x1 = 0.7	-0.0869 ± 0.00335
348.15 K, 5000 kPa, x1 = 0.8	-0.0695 ± 0.00287
348.15 K, 5000 kPa, x1 = 0.9	-0.0424 ± 0.00208
349.68 K, 5000 kPa, x1 = 0.9	-0.0412 ± 0.00201
350.05 K, 5000 kPa, x1 = 0.1	-0.0674 ± 0.00287
350.05 K, 5000 kPa, x1 = 0.2	-0.0978 ± 0.00382
350.05 K, 5000 kPa, x1 = 0.3	-0.106 ± 0.00406
350.05 K, 5000 kPa, x1 = 0.4	-0.106 ± 0.00406
350.05 K, 5000 kPa, x1 = 0.5	-0.102 ± 0.00382
350.05 K, 5000 kPa, x1 = 0.6	-0.0936 ± 0.00359
350.05 K, 5000 kPa, x1 = 0.7	-0.0835 ± 0.00335
350.05 K, 5000 kPa, x1 = 0.8	-0.0667 ± 0.00287
350.05 K, 5000 kPa, x1 = 0.9	-0.0408 ± 0.00201
351.04 K, 5000 kPa, x1 = 0.8	-0.0626 ± 0.00263
351.25 K, 5000 kPa, x1 = 0.9	-0.0398 ± 0.00198
351.64 K, 5000 kPa, x1 = 0.1	-0.0659 ± 0.00287
351.93 K, 5000 kPa, x1 = 0.7	-0.0796 ± 0.00311
352.43 K, 5000 kPa, x1 = 0.6	-0.0885 ± 0.00359
352.79 K, 5000 kPa, x1 = 0.8	-0.0634 ± 0.00263
352.88 K, 5000 kPa, x1 = 0.5	-0.096 ± 0.00359
353.01 K, 5000 kPa, x1 = 0.2	-0.0922 ± 0.00359
353.16 K, 5000 kPa, x1 = 0.4	-0.0995 ± 0.00382
353.32 K, 5000 kPa, x1 = 0.3	-0.1 ± 0.00382
353.54 K, 5000 kPa, x1 = 0.1	-0.0624 ± 0.00263
353.78 K, 5000 kPa, x1 = 0.7	-0.0773 ± 0.00311
354.25 K, 5000 kPa, x1 = 0.6	-0.0852 ± 0.00335
354.69 K, 5000 kPa, x1 = 0.5	-0.0921 ± 0.00359
354.82 K, 5000 kPa, x1 = 0.2	-0.0883 ± 0.00359
354.97 K, 5000 kPa, x1 = 0.4	-0.095 ± 0.00359

Reference: the NIST ThermoML archive (doi:10.1016/j.jct.2005.03.012)
